Assay results as given in EPA's ToxValDB 9.5 (doi:10.2903/j.efsa.2008.118r).
Values after ≈ are worked out from the molar mass of the structure shown.

Assays:
Tagia sp. = conditions: acute; duration: 14 days; mortality
Colinus virginianus = conditions: reproduction developmental
Canidae = conditions: chronic; duration: 1 years; oral; M/F; Dog Other; histopathology: nonneoplastic
Oncorhynchus mykiss = conditions: acute; duration: 96 hours; mortality
Typhlodromus pyri = conditions: acute
Coturnix japonica = conditions: acute, oral, mortality
Apis mellifera = conditions: acute; duration: 48 hours; oral; unspecified; mortality
Daphnia magna = conditions: chronic/long-term; duration: 21 days; reproduction

Q: For c1coc(-c2nc3ccccc3[nH]2)c1 [Fuberidazole], which LC50 (Tagia sp.) is on record?
A: Its LC50 is over 1000 mg/kg.

Q: What about the NOEC (Colinus virginianus) of the same compound?
A: The NOEC was over 76.9 mg/kg-day.

Q: And the NOAEL (Canidae)?
A: Its NOAEL is 0.72 mg/kg-day.

Q: What about the LC50 (Oncorhynchus mykiss) of the same compound?
A: The LC50 was 0.91 µg/mL (≈ 4.94 µM).

Q: What about the LD50 (Rattus norvegicus; acute, mortality) of the same compound?
A: Its LD50 is over 300 mg/kg.

Q: What about the NOAEL (Rattus norvegicus; developmental, development) of the same compound?
A: Its NOAEL is 8 mg/kg-day.

Q: What about the NOAEL (Rattus norvegicus; reproduction developmental, mortality) of the same compound?
A: Its NOAEL is 4 mg/kg-day.

Q: And the LEL (Typhlodromus pyri; duration: 7 days, mortality)?
A: Its LEL is 26 g/ha.

Q: What about the LEL (Typhlodromus pyri; duration: 14 days, reproduction) of the same compound?
A: Its LEL is 26 g/ha.

Q: What about the LC50 (Coturnix japonica; diet) of the same compound?
A: Its LC50 is over 930 mg/kg-day.

Q: What about the LD50 (Coturnix japonica) of the same compound?
A: The LD50 was over 750 mg/kg.

Q: And the LD50 (Apis mellifera)?
A: The LD50 was over 187 µg/piece.

Q: And the NOEC (Daphnia magna)?
A: The NOEC was 0.12 mg/L.
